Test results from PubChem BioAssay (NCI).
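Growth conditions: 96-well plates. Treatment: test compound, 48 hours, 5 concentrations. Analysis: linear interpolation between bracketing concentrations; unreached endpoints set to highest concentration. TGI denotes the concentration required for complete inhibition of growth.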

Columns and labels:
Assay in all cases: growth of human tumour cells (NCI), 48 h
HL-60(TB) leukemia = test system: HL-60(TB) leukemia
IGROV1 ovarian = test system: IGROV1 ovarian
SK-OV-3 ovarian = test system: SK-OV-3 ovarian
SF-539 CNS = test system: SF-539 CNS
SW-620 colon = test system: SW-620 colon
ACHN renal = test system: ACHN renal
K-562 leukemia = test system: K-562 leukemia
SR leukemia = test system: SR leukemia
RPMI-8226 leukemia = test system: RPMI-8226 leukemia
KM12 colon = test system: KM12 colon
HCT-116 colon = test system: HCT-116 colon
NCI-H460 lung = test system: NCI-H460 lung
COLO 205 colon = test system: COLO 205 colon
LOX IMVI melanoma = test system: LOX IMVI melanoma
OVCAR-4 ovarian = test system: OVCAR-4 ovarian
CCRF-CEM leukemia = test system: CCRF-CEM leukemia
SK-MEL-5 melanoma = test system: SK-MEL-5 melanoma
OVCAR-5 ovarian = test system: OVCAR-5 ovarian
NCI-H226 lung = test system: NCI-H226 lung
SF-295 CNS = test system: SF-295 CNS
SNB-19 CNS = test system: SNB-19 CNS
A549 NSCLC = test system: A549 NSCLC
MALME-3M melanoma = test system: MALME-3M melanoma
HT29 colon = test system: HT29 colon
U251 CNS = test system: U251 CNS
SN12C renal = test system: SN12C renal
EKVX NSCLC = test system: EKVX NSCLC
A498 renal = test system: A498 renal
DU-145 prostate = test system: DU-145 prostate
OVCAR-3 ovarian = test system: OVCAR-3 ovarian
MDA-MB-231 breast = test system: MDA-MB-231 breast
SK-MEL-2 melanoma = test system: SK-MEL-2 melanoma
MOLT-4 leukemia = test system: MOLT-4 leukemia
HOP-92 NSCLC = test system: HOP-92 NSCLC
MCF7 breast = test system: MCF7 breast
CAKI-1 renal = test system: CAKI-1 renal
UACC-257 melanoma = test system: UACC-257 melanoma
786-0 renal = test system: 786-0 renal
NCI-H23 lung = test system: NCI-H23 lung
HCC-2998 colon = test system: HCC-2998 colon
SK-MEL-28 melanoma = test system: SK-MEL-28 melanoma
HS 578T breast = test system: HS 578T breast
MDA-N = test system: MDA-N
SF-268 CNS = test system: SF-268 CNS
UACC-62 melanoma = test system: UACC-62 melanoma
M14 melanoma = test system: M14 melanoma
T-47D breast = test system: T-47D breast
HCT-15 colon = test system: HCT-15 colon
NCI-H522 lung = test system: NCI-H522 lung
MDA-MB-435 = test system: MDA-MB-435
BT-549 breast = test system: BT-549 breast
OVCAR-8 ovarian = test system: OVCAR-8 ovarian
PC-3 prostate = test system: PC-3 prostate
TK-10 renal = test system: TK-10 renal
NCI/ADR-RES ovarian = test system: NCI/ADR-RES ovarian
SNB-75 CNS = test system: SNB-75 CNS
HOP-62 NSCLC = test system: HOP-62 NSCLC
RXF 393 renal = test system: RXF 393 renal
UO-31 renal = test system: UO-31 renal

**Q.** `C=C1C(=O)OC2CC(C)C(/C=C/C(C)=O)=CCC12` (configuration not stated) was tested. Which TGI (HL-60(TB) leukemia) did it give?
**A.** > 100 µM

**Q.** And the TGI (IGROV1 ovarian)?
**A.** > 100 µM

**Q.** What about the TGI (SK-OV-3 ovarian) of the same compound?
**A.** > 100 µM

**Q.** What about the TGI (SF-539 CNS) of the same compound?
**A.** > 100 µM

**Q.** What about the TGI (SW-620 colon) of the same compound?
**A.** > 100 µM

**Q.** And the TGI (ACHN renal)?
**A.** > 100 µM

**Q.** And the TGI (K-562 leukemia)?
**A.** > 100 µM

**Q.** And the TGI (SR leukemia)?
**A.** > 100 µM

**Q.** What about the TGI (RPMI-8226 leukemia) of the same compound?
**A.** > 100 µM

**Q.** And the TGI (KM12 colon)?
**A.** > 100 µM

**Q.** What about the TGI (HCT-116 colon) of the same compound?
**A.** > 100 µM

**Q.** And the TGI (NCI-H460 lung)?
**A.** > 100 µM

**Q.** And the TGI (COLO 205 colon)?
**A.** > 100 µM

**Q.** What about the TGI (LOX IMVI melanoma) of the same compound?
**A.** > 100 µM

**Q.** What about the TGI (OVCAR-4 ovarian) of the same compound?
**A.** > 100 µM

**Q.** And the TGI (CCRF-CEM leukemia)?
**A.** > 100 µM

**Q.** And the TGI (SK-MEL-5 melanoma)?
**A.** > 100 µM

**Q.** And the TGI (OVCAR-5 ovarian)?
**A.** > 100 µM

**Q.** What about the TGI (NCI-H226 lung) of the same compound?
**A.** > 100 µM

**Q.** And the TGI (SF-295 CNS)?
**A.** > 100 µM

**Q.** What about the TGI (SNB-19 CNS) of the same compound?
**A.** > 100 µM

**Q.** What about the TGI (A549 NSCLC) of the same compound?
**A.** > 100 µM

**Q.** What about the TGI (MALME-3M melanoma) of the same compound?
**A.** 89.4 µM

**Q.** What about the TGI (HT29 colon) of the same compound?
**A.** > 100 µM

**Q.** And the TGI (U251 CNS)?
**A.** > 100 µM

**Q.** What about the TGI (SN12C renal) of the same compound?
**A.** > 100 µM

**Q.** And the TGI (EKVX NSCLC)?
**A.** > 100 µM

**Q.** What about the TGI (A498 renal) of the same compound?
**A.** > 100 µM

**Q.** What about the TGI (DU-145 prostate) of the same compound?
**A.** > 100 µM

**Q.** What about the TGI (OVCAR-3 ovarian) of the same compound?
**A.** > 100 µM

**Q.** And the TGI (MDA-MB-231 breast)?
**A.** > 100 µM

**Q.** What about the TGI (SK-MEL-2 melanoma) of the same compound?
**A.** > 100 µM

**Q.** And the TGI (MOLT-4 leukemia)?
**A.** > 100 µM

**Q.** And the TGI (HOP-92 NSCLC)?
**A.** > 100 µM

**Q.** And the TGI (MCF7 breast)?
**A.** > 100 µM

**Q.** What about the TGI (CAKI-1 renal) of the same compound?
**A.** > 100 µM

**Q.** And the TGI (UACC-257 melanoma)?
**A.** > 100 µM

**Q.** And the TGI (786-0 renal)?
**A.** > 100 µM

**Q.** And the TGI (NCI-H23 lung)?
**A.** > 100 µM

**Q.** What about the TGI (HCC-2998 colon) of the same compound?
**A.** > 100 µM

**Q.** What about the TGI (SK-MEL-28 melanoma) of the same compound?
**A.** > 100 µM

**Q.** What about the TGI (HS 578T breast) of the same compound?
**A.** > 100 µM

**Q.** And the TGI (MDA-N)?
**A.** > 100 µM

**Q.** What about the TGI (SF-268 CNS) of the same compound?
**A.** > 100 µM

**Q.** What about the TGI (UACC-62 melanoma) of the same compound?
**A.** > 100 µM

**Q.** What about the TGI (M14 melanoma) of the same compound?
**A.** > 100 µM

**Q.** What about the TGI (T-47D breast) of the same compound?
**A.** > 100 µM

**Q.** What about the TGI (HCT-15 colon) of the same compound?
**A.** > 100 µM

**Q.** What about the TGI (NCI-H522 lung) of the same compound?
**A.** > 100 µM

**Q.** And the TGI (MDA-MB-435)?
**A.** > 100 µM

**Q.** What about the TGI (BT-549 breast) of the same compound?
**A.** > 100 µM

**Q.** What about the TGI (OVCAR-8 ovarian) of the same compound?
**A.** > 100 µM

**Q.** And the TGI (PC-3 prostate)?
**A.** > 100 µM

**Q.** What about the TGI (TK-10 renal) of the same compound?
**A.** > 100 µM

**Q.** What about the TGI (NCI/ADR-RES ovarian) of the same compound?
**A.** > 100 µM

**Q.** What about the TGI (SNB-75 CNS) of the same compound?
**A.** > 100 µM

**Q.** And the TGI (HOP-62 NSCLC)?
**A.** > 100 µM

**Q.** And the TGI (RXF 393 renal)?
**A.** > 100 µM

**Q.** What does the source list for `CC(=O)OCC1OC(OCCCOP(=O)(OCCC#N)OCC2OC(n3cnc4c(N)ncnc43)C(OC(=O)c3ccccc3)C2OC(=O)c2ccccc2)C(OC(C)=O)C(OC(C)=O)C1OC(C)=O` (configuration not stated)?
**A.** TGI (HL-60(TB) leukemia): > 100 µM; TGI (IGROV1 ovarian): > 100 µM; TGI (SK-OV-3 ovarian): > 100 µM; TGI (SF-539 CNS): > 100 µM; TGI (SW-620 colon): > 100 µM; TGI (ACHN renal): > 100 µM; TGI (K-562 leukemia): > 100 µM; TGI (SR leukemia): > 100 µM; TGI (RPMI-8226 leukemia): > 100 µM; TGI (KM12 colon): > 100 µM; TGI (HCT-116 colon): > 100 µM; TGI (UO-31 renal): > 100 µM; TGI (NCI-H460 lung): > 100 µM; TGI (COLO 205 colon): > 100 µM; TGI (LOX IMVI melanoma): > 100 µM; TGI (OVCAR-4 ovarian): > 100 µM; TGI (CCRF-CEM leukemia): > 100 µM; TGI (SK-MEL-5 melanoma): > 100 µM; TGI (OVCAR-5 ovarian): > 100 µM; TGI (NCI-H226 lung): > 100 µM; TGI (SF-295 CNS): > 100 µM; TGI (SNB-19 CNS): > 100 µM; TGI (A549 NSCLC): > 100 µM; TGI (MALME-3M melanoma): 5.53 µM; TGI (HT29 colon): > 100 µM; TGI (U251 CNS): > 100 µM; TGI (SN12C renal): > 100 µM; TGI (EKVX NSCLC): > 100 µM; TGI (A498 renal): > 100 µM; TGI (DU-145 prostate): > 100 µM; TGI (OVCAR-3 ovarian): > 100 µM; TGI (MDA-MB-231 breast): > 100 µM; TGI (SK-MEL-2 melanoma): > 100 µM; TGI (MOLT-4 leukemia): > 100 µM; TGI (HOP-92 NSCLC): > 100 µM; TGI (MCF7 breast): > 100 µM; TGI (CAKI-1 renal): > 100 µM; TGI (UACC-257 melanoma): > 100 µM; TGI (786-0 renal): > 100 µM; TGI (NCI-H23 lung): > 100 µM; TGI (HCC-2998 colon): > 100 µM; TGI (SK-MEL-28 melanoma): > 100 µM; TGI (HS 578T breast): > 100 µM; TGI (MDA-N): > 100 µM; TGI (SF-268 CNS): > 100 µM; TGI (UACC-62 melanoma): > 100 µM; TGI (M14 melanoma): > 100 µM; TGI (T-47D breast): > 100 µM; TGI (HCT-15 colon): > 100 µM; TGI (NCI-H522 lung): > 100 µM; TGI (MDA-MB-435): > 100 µM; TGI (BT-549 breast): > 100 µM; TGI (OVCAR-8 ovarian): > 100 µM; TGI (PC-3 prostate): > 100 µM; TGI (TK-10 renal): > 100 µM; TGI (NCI/ADR-RES ovarian): > 100 µM; TGI (SNB-75 CNS): > 100 µM; TGI (HOP-62 NSCLC): > 100 µM; TGI (RXF 393 renal): > 100 µM
